# Tested on: APP processing
# Experiment: Immunoblot of APP processing (FIG. 12)
# Excerpt: FIG. 12 illustrates an immunoblot showing the effects ISP in combination with a γ-secretase inhibitor on APP processing compared to a γ-secretase inhibitor administered alone or a BACE1 inhibitor administered in combination with a γ-secretase inhibitor. […]
substance,measurement,setting,value
NH2GRKKRRQRRRCDMAEHTMERLKANDSLKLSQEYESI-NH2 [ISP],effect on APP processing (immunoblot),"ISP in combination with a γ-secretase inhibitor, compared to a γ-secretase inhibitor alone or a BACE1 inhibitor in combination with a γ-secretase inhibitor",substantially inhibited APP processing
same,suppression of APP amyloidogenic processing by BACE1,"blocking PTPσ with wedge domain peptide mimetic, compared with PTPσ depletion","suppress APP amyloidogenic processing by BACE1, to a similar degree as PTPσ depletion"

# — US20200093890A1, “COMPOSITIONS AND METHODS FOR TREATING ALZHEIMER'S DISEASE” (CASE WESTERN RESERVE UNIVERSITY, priority 2017, published 2020)
